Laboratory results from paper PMC7551400, “Moderate Wine Consumption Reduces Faecal Water Cytotoxicity in Healthy Volunteers” (Nutrients, 2020).
Where two headings read alike, the source gives them in different places.

How the values were obtained:
[1] = tested on: HCT 116 cells; assay: MTT cytotoxicity assay, reference compounds; format: cell-based; conditions: Homo sapiens, read-out: Toxicity (IC50 value)
Description: (§1) Two human colon adenocarcinoma cell lines, HT-29 (ATCC® HTB-38TM) and […]), were used to evaluate cell cytotoxicity. […] Biowest Europe, Nuaillé, France). […] Cells were grown in 75 cm^2 flasks (Corning Flask, Corning, NY, USA) at 37 °C and in a 5% CO2 atmosphere and the media were renewed every 3 days. […] Cells were seeded at a density of 3.6 × 10^5 cells/mL on well plates, and washed with warm DPBS. […] After that, supernatants were removed from the wells, and MTT (Sigma-Aldrich, St. Louis, MO, USA) solution (0.5 mg/mL) was added (100 μL/well). The plates were immediately incubated for 3 h in darkness. After this time, MTT reagent was aspirated and formazan crystals were diluted in 100 μL of dimethyl sulfoxide (DMSO; Sigma-Aldrich, St. Louis, MO, USA). Absorbance at 570 nm was measured on a Multiskan plate reader (Thermo Scientific, Newington, NH, USA). Cell viability (%) was calculated as Abssample/Abscontrol × 100. Assays were performed in triplicate and three independent experiments were carried out.

[2] = tested on: HT-29 cells; assay: MTT cytotoxicity assay, reference compounds; format: cell-based; conditions: Homo sapiens, read-out: Toxicity (IC50 value)
Description: as §1

[3] = tested on: HT-29 cells; conditions: cited from earlier work
[4] = tested on: HT-29 Glc–/þ cell line; parameters: method as in PMID 25881551; conditions: 24 h incubation; cited from earlier work
[5] = tested on: Caco 2 cells; parameters: method as in PMID 30359553; conditions: 24 h of incubation; cited from earlier work

Structure (SMILES): Oc1ccccc1 [Phenol]
- IC50 ([1]; HCT-116, 4 h): 23.8 mM
- IC50 ([1]; HCT-116, 24 h): 11.4 mM
- IC50 ([2]; HT-29, 4 h): 15.8 mM
- IC50 ([2]; HT-29, 24 h): 6.16 mM
- Concentration at which compound became cytotoxic [3]: 1250 µM

Structure (SMILES): Cc1ccc(O)cc1 [p-Cresol, p-cresol]
- IC50 ([1]; HCT 116, 4 h incubation, MTT): 5.64 mM
- IC50 ([1]; HCT 116, 24 h incubation, MTT): 4.16 mM
- IC50 ([2]; HT-29, 4 h incubation, MTT): 5.4 mM
- IC50 ([2]; HT-29, 24 h incubation, MTT): 2.13 mM
- Concentration with cytotoxicity effects [4]: 800 µM
- Concentration from which a cytotoxic effect was exerted ([3]; 24 h of incubation): ≥ 3000 µM
- Concentration from which a cytotoxic effect was exerted [5]: ≥ 3000 µM
